We go through 5 molecules from article PMC7277860, “Viridistratins A−C, Antimicrobial and Cytotoxic Benzo[j]fluoranthenes from Stromata of Annulohypoxylon viridistratum (Hypoxylaceae, Ascomycota)” (Biomolecules, 2020).

For the test, the system named is Escherichia coli. Kind of test: MIC serial dilution assay. Format: cell-based. Conditions: Escherichia coli DSM1116; overnight, 37 °C; reference oxytetracycline 0.1 mg/mL; read-out: Minimum Inhibitory Concentration (MIC). The method, then: Compounds 1, 2, 4 and 5 were dissolved in MeOH (1 mg/mL) for the antimicrobial activity assay, while compound 3 was dissolved in MeOH: DMSO 9+1 (1 mg/mL). The solvents were also used as negative controls.
Minimum inhibitory concentrations (MIC) were determined in a serial dilution assay, as described previously; a detailed protocol can be found in the Supporting Information. The compounds (1 mg/mL) were diluted to a range of 66.7 to 0.52 µg/mL and incubated with the test organisms overnight. Inhibition of growth was visually evaluated the next day: the MIC is defined as the lowest concentration of the test compound where no growth of the test organism was observed. Various test organisms of fungal and bacterial origin were tested to cover a broad range of microorganisms. This selection is also being used as a standard test panel in our attempts to discover new anti-infectives, as it represents a broad spectrum of pathogens of clinical interest, as well as sensitive indicator strains (bacteria: Bacillus subtilis, Staphylococcus aureus, Micrococcus luteus, Chromobacterium violaceum, Escherichia coli and Pseudomonas aeruginosa; mycobacteria: Mycolicibacterium smegmatis and fungi: Candida albicans, Schizosaccharomyces pombe, Mucor hiemalis, Pichia anomala and Rhodotorula glutinis).
Protocol: Antimicrobial Activi ty Assay
The assay was conducted as a minimum inhi bitory concentration (MIC) assay in 96-well ro und-bottom mi crotiter pl ate s usi ng the p ar ameter s su mm ari zed i n T a bl e S 1 and as already described i n [S1].
Stocks of the test organi sms were generated by growing the organisms o ver ni ght i n 50 mL shaki ng fl asks fi ll ed wi th 25 mL of the growth medi um at 140 rpm (for media and temperatures see Table S1). If the organisms were well grown the ne xt day, which was checked by occurrence of an optical density (OD)>30 of the suspension (OD600 nm for bacteria, OD548 nm for fungi and M. smegma tis) , aliquots of these were stored i n 1.5 mL reaction tube s in a freezer at −80 °C for up to 12 mo nths . Upon use, aliquots were unth awed and the OD of the suspension measured and adjusted by diluting with the respective growth medi um. OD600 nm w as adj usted to 0.01 and OD548 nm to 0.1.
Subse que ntly, 150 µL o f the adjusted suspensions were added to all wells of a 96-wel l microtiter pl ate (one test organi sm per plate). In row A, additional 130 µL of suspensions plus 20 µL of the test compounds (1 mg/mL) and the controls (one compound/column) were added. MeOH as well as MeOH:DMSO 9+1 were used as negative controls, while different positive controls (refer ences) were used for the test organisms (see Tabl e S1). Then, starti ng from row A, 150 µ L of the suspension were transferred to the next row, the contents thoroughly mixed, and 150 µ L transferred to the following row.
The remaining 150 µ L after row H were discarded. […]
compounds, ranging from 66.7 µg/mL i n row A to 0.52 µg/mL i n row H.
The microtiter plates were then incubated overnight o n a microplate shaker at 800 rpm at 30 or 37 °C (see Table S1) and were visually evaluated the next day. The MIC is defined as the lowest concentration were no growth of the test organism was o bserved. A lower MIC thus corresponds to a higher antimicrobial activity of the test compound.
Table S1: MIC assay ex per i men t parameters test organism strain No. growth incubation positive control (reference) […]
Escherichia coli DSM1116 MHB 1 37 oxytetr acyclin 0.1 mg/mL […]
Rhodotorula glutinis DSM10134 MYC 3 30 nyst ati n 1.0 mg/mL
1 MHB: Müller-Hinton Broth (SN X927.1, Ca r l Roth GmbH, Karlsruhe, Germany) 2 7H9+ADC: Middlebrook 7H9 Broth Base + Middlebrook ADC Growth Supplement (SN M0678+M0553, Merck, Darmstadt, Germany)
3 MYC: 1 % w/v, bacto peptone, 1% w/v yeast extract, 2 % w /v glycerol, pH 6.3 [S1] Helaly, S.E.; Ashrafi, S.; Teponno, R.B.; Bernecker, S.; Dababat, A.A.; Maier, W.; Stadler, M.
Nematicidal Cyclic Lipodepsipeptides and a Xanthocillin Derivative from a Phaeosphariaceous […]

Turning to `Oc1cccc2c3c(ccc12)-c1ccc(O)c2c(O)ccc-3c12` [Compound 1, viridistratin A], the MIC is above 66.7 µg/mL.
Under `COc1cccc2c3c(ccc12)-c1ccc(O)c2c(O)ccc-3c12` [Compound 2, viridistratin B] stands above 66.7 µg/mL.
On to `COc1cccc2c3c(ccc12)-c1ccc(O)c2c(OC)ccc-3c12` [Compound 3, viridistratin C], for which the MIC is above 66.7 µg/mL.
Under `O=C1C[C@H]2C(=C3CCC(=O)c4c(O)ccc2c43)c2cccc(O)c21` [Compound 4, truncatone A] stands above 66.7 µg/mL.
`O=C1CCC(=O)c2c1c(O)cc1c2-c2ccc(O)c3c(O)ccc-1c23` [Compound 5, truncatone C]: the MIC was above 66.7 µg/mL.
